Patent publication US20250312362A1, “INHIBITORS OF MsbA AS ANTIBIOTICS, PHARMACEUTICAL COMPOSITIONS, AND USES THEREOF” (Merck Sharp & Dohme LLC, priority 2022, published 2025)
In brackets after ≈: the same amount, converted by molar mass.

System: various strains of bacteria
Assay: Antimicrobial potency: bacterial growth inhibition by OD600 (Antibacterial assay 1)
Type: cell-based
Conditions: read-out: Antibacterial assay 1 (MITC95)
Procedure: The concentrations of compounds required to inhibit the growth of various strains of bacteria were determined in an assay that assessed bacterial growth by measuring optical density at 600 nm (OD600). Test articles were dissolved in 100% DMSO and serially diluted two-fold from their maximal concentration in 100% DMSO. Forty-nine μl of bacterial inoculum (at approx. 2×10^5 cfu/mL in CAMHB) were put into wells of an assay plate. One μl of compound or DMSO was transferred from the source plate to the assay plate. The completed assay plates were then incubated at 35±2 degC. for 18-22 h. Bacterial growth was measured by reading OD600 on a spectrophotometer. Data analysis calculates the lowest concentration of compound which results in ≥95% growth inhibition (minimum inhibitory threshold concentration 95%, MITC95).

Question: How did the MIC turn out when CCCCc1ccc(S(=O)(=O)Nc2ccc(NC(=O)CCC(=O)Nc3cnc(NS(=O)(=O)c4ccc(CCCC)cc4)c(C(=O)O)c3)cc2C(=O)O)cc1 [Compound 3, 2-((4-butylphenyl)sulfonamido)-5-(4-((4-((4-butylphenyl)sulfonamido)-3-carboxyphenyl)amino)-4-oxobutanamido)nicotinic acid] was run?
Answer: Its MIC is 0.621 µM (≈ 0.484 µg/mL).

Question: How did the MIC turn out when O=C(CCCOc1ccc(NS(=O)(=O)c2ccc(-c3ccc(Cl)cc3)s2)c(C(=O)O)c1)Nc1ccc(NS(=O)(=O)c2ccc(-c3ccc(Cl)cc3)s2)c(C(=O)O)c1 [Compound 4, 5-(4-(3-Carboxy-4-((5-(4-chlorophenyl)thiophene)-2-sulfonamido)phenoxy)-butanamido)-2-((5-(4-chlorophenyl)thiophene)-2-sulfonamido)benzoic acid] was run?
Answer: The MIC was 0.0122 µM (≈ 0.0108 µg/mL).

Question: For O=C(CCCOc1ccc(NS(=O)(=O)c2cnn(-c3ccc(Cl)cc3)c2)c(C(=O)O)c1)Nc1ccc(NC(=O)Cc2ccc(-c3ccc(F)cc3)cc2)c(C(=O)O)c1 [Compound 11], which MIC is on record?
Answer: Its MIC is 0.0489 µM (≈ 0.0404 µg/mL).

Question: For O=C(CCNC(=O)c1ccc(NS(=O)(=O)c2cnn(-c3ccc(Cl)cc3)c2)c(C(O)O)c1)Nc1ccc(NS(=O)(=O)c2cnn(-c3ccc(Cl)cc3)c2)c(C(=O)O)c1 [Compound 23], which MIC is on record?
Answer: The MIC was 0.098 µM (≈ 0.0852 µg/mL).

Question: Which MIC does the source give for CCCCc1ccc(S(=O)(=O)Nc2ccc(NC(=O)CCNC(=O)c3ccc(NS(=O)(=O)c4ccc(CCCC)cc4)c(C(=O)O)c3)cc2C(=O)O)cc1 [Compound 20, 2-((4-butylphenyl)sulfonamido)-5-(3-(4-((4-butylphenyl)sulfonamido)-3-carboxy-benzamido)propanamido)benzoic acid] here?
Answer: The MIC was 0.112 µM (≈ 0.0872 µg/mL).

Question: CCCCc1ccc(S(=O)(=O)Nc2ccc(NC(=O)Nc3ccc(NS(=O)(=O)c4ccc(CCCC)cc4)c(C(=O)O)c3)cc2C(=O)O)cc1 [Compound 15] was tested. Which MIC did it give?
Answer: The MIC was 2.21 µM (≈ 1.6 µg/mL).

Question: For CCCCc1ccc(S(=O)(=O)Nc2ccc(OCCCC(=O)Nc3ccc(NS(=O)(=O)c4ccc(CCCC)cc4)c(C(=O)O)n3)cc2C(=O)O)cc1 [Compound 10], which MIC is on record?
Answer: The MIC was 0.985 µM (≈ 0.755 µg/mL).

Question: For O=C(CCCOc1ccc(NS(=O)(=O)c2cnn(-c3ccc(Cl)cc3)c2)c(C(=O)O)c1)Nc1ccc(NS(=O)(=O)c2ccc(-c3ccc(F)cc3)cc2)c(C(=O)O)c1 [Compound 6], which MIC is on record?
Answer: The MIC was 0.0173 µM (≈ 0.0147 µg/mL).

Question: With O=C(Nc1ccc(NC(=O)C(=O)NCc2ccc(Cl)cc2)c(C(=O)O)c1)Nc1ccc(NC(=O)C(=O)NCc2ccc(Cl)cc2)c(C(=O)O)c1 [Compound 17, 5,5′-(carbonylbis(azanediyl))bis(2-(2-((4-chlorobenzyl)amino)-2-oxoacetamido)benzoic acid)] as the molecule, how does the MIC read?
Answer: Its MIC is 0.0245 µM (≈ 0.0177 µg/mL).

Question: O=C(Nc1ccc(NC(=O)C(=O)NCCc2ccc(Cl)cc2)c(C(=O)O)c1)Nc1ccc(NC(=O)C(=O)NCCc2ccc(Cl)cc2)c(C(=O)O)c1 [Compound 19] was tested. Which MIC did it give?
Answer: Its MIC is > 3.13 µM.

Question: CCCCc1ccc(S(=O)(=O)Nc2ccc(NC(=O)C[C@H](C)NC(=O)c3ccc(NS(=O)(=O)c4ccc(CCCC)cc4)c(C(O)O)c3)cc2C(=O)O)cc1 [Compound 22] was tested. Which MIC did it give?
Answer: The MIC was 0.782 µM (≈ 0.622 µg/mL).

Question: Which MIC does the source give for CCCCc1ccc(S(=O)(=O)Nc2ccc(NC(=O)CCC(=O)Nc3ccc(NS(=O)(=O)c4ccc(CCCC)cc4)c(C(=O)O)c3)cc2C(=O)O)cc1 [Compound 2, 5,5′-(succinylbis(azanediyl))bis(2-((4-butylphenyl)sulfonamido)benzoic acid)] here?
Answer: The MIC was 0.0568 µM (≈ 0.0442 µg/mL).

Question: How did the MIC turn out when O=C(CCCOc1ccc(NS(=O)(=O)c2cnn(-c3ccc(Cl)cc3)c2)c(C(=O)O)c1)Nc1ccc(NS(=O)(=O)c2ccc(-c3cc(Cl)cc(Cl)c3)cc2)c(C(=O)O)c1 [Compound 5] was run?
Answer: The MIC was 0.0122 µM (≈ 0.011 µg/mL).

Question: Which MIC does the source give for CCCCc1ccc(S(=O)(=O)Nc2ccc(NC(=O)CCNC(=O)c3ccc(NS(=O)(=O)c4ccc(CCOC)cc4)c(C(O)O)c3)cc2C(=O)O)cc1 [Compound 21] here?
Answer: Its MIC is 0.782 µM (≈ 0.612 µg/mL).

Question: O=C(Nc1ccc(NS(=O)(=O)c2cnn(-c3ccc(F)cc3)c2)c(C(=O)O)c1)Nc1ccc(NS(=O)(=O)c2cnn(-c3ccc(F)cc3)c2)c(C(=O)O)c1 [Compound 14, 5-(3-(3-carboxy-4-((1-(4-fluorophenyl)-1H-pyrazole)-4-sulfonamido)phenyl)ureido)-2-((1-(4-fluorophenyl)-1H-pyrazole)-4-sulfonamido)benzoic acid] was tested. Which MIC did it give?
Answer: Its MIC is 3.13 µM (≈ 2.44 µg/mL).

Question: For O=C(COc1ccc(NS(=O)(=O)c2cnn(-c3ccc(Cl)cc3)c2)c(C(O)O)c1)Nc1ccc(NC(=O)C(=O)NCc2ccc(Cl)cc2)c(C(=O)O)c1 [Compound 13], which MIC is on record?
Answer: The MIC was 0.0978 µM (≈ 0.0766 µg/mL).

Question: For Cc1c(S(=O)(=O)Nc2ccc(NC(=O)CCCOc3ccc(NS(=O)(=O)c4cnn(-c5ccc(Cl)cc5)c4)c(C(=O)O)c3)cc2C(=O)O)sc2ccc(Cl)cc12 [Compound 7], which MIC is on record?
Answer: Its MIC is 0.0122 µM (≈ 0.0105 µg/mL).

Question: How did the MIC turn out when O=C(CCCOc1ccc(NS(=O)(=O)c2cnn(-c3ccc(Cl)cc3)c2)c(C(=O)O)c1)Nc1ccc(NC(=O)Cc2cccc(-c3ccc(F)cc3)c2)c(C(=O)O)c1 [Compound 12] was run?
Answer: The MIC was 0.0489 µM (≈ 0.0404 µg/mL).

Question: CCCCc1ccc(S(=O)(=O)Nc2ccc(NC(=O)CCCOc3ccc(NS(=O)(=O)c4sc(-c5ccccc5)nc4C)c(C(=O)O)c3)cc2C(=O)O)cc1 [Compound 8] was tested. Which MIC did it give?
Answer: Its MIC is 0.0173 µM (≈ 0.014 µg/mL).

Question: With CCCCc1ccc(S(=O)(=O)Nc2ccc(NC(=O)CCC(=O)Nc3ccc(NS(=O)(=O)c4ccc(CCCC)cc4)c(P(=O)(O)O)c3)cc2C(=O)O)cc1 [Compound 1, 2-((4-butylphenyl)sulfonamido)-5-(4-((4-((4-butylphenyl)sulfonamido)-3-phosphonophenyl)amino)-4-oxobutanamido)benzoic acid] as the molecule, how does the MIC read?
Answer: Its MIC is 1.56 µM (≈ 1.27 µg/mL).

Question: Which MIC does the source give for O=C(CCCOc1ccc(NS(=O)(=O)c2ccc(Oc3ccc(Cl)cc3)nc2)c(C(=O)O)c1)Nc1ccc(NS(=O)(=O)c2ccc(Oc3ccc(Cl)cc3)nc2)c(C(=O)O)c1 [Compound 9] here?
Answer: The MIC was 0.0122 µM (≈ 0.0111 µg/mL).
